Measured values from US20260356957A1, “METHODS FOR TREATMENT OF NON-SMALL CELL LUNG CANCER (NSCLC)” (Janssen Biotech, Inc., priority 2023, published 2026).

Tests used:
EGFR-mutated NSCLC = details: all prespecified subgroups; cited from earlier work
[1] = test system: EGFR-mutated locally advanced or metastatic NSCLC; test: MARIPOSA Phase 3, time to subsequent therapy (TTST) and subsequent therapy; format: in vivo, human
[2] = test system: EGFR-mutated NSCLC with brain metastasis; test: MARIPOSA Phase 3, intracranial PFS by BICR in participants with history of brain metastasis; format: in vivo, human
Text: • 1. […] Intracranial PFS [Time Frame: Up to approximately 42 months]. […] Incidence and Severity of Adverse Events (AEs) [Time Frame: Up to approximately 60 months]. Incidence and severity of treatment emergent adverse events (TEAEs) will be reported. Any adverse event occurring at or after the initial administration of study treatment through the day of last dose plus 30 days, or until the start of subsequent anticancer therapy (if earlier), is considered to be treatment emergent. • 8. Number of Participants with Clinical Laboratory Abnormalities [Time Frame: Up to approximately 60 months]. Number of participants with clinical laboratory abnormalities (serum chemistry, hematology, blood coagulation, and urine samples) will be reported. • 9. Number of Participants with Vital Signs Abnormalities [Time Frame: Up to approximately 60 months]. Number of participants with vital signs abnormalities (temperature, heart rate, respiratory rate, oxygen saturation, blood pressure) will be reported. • 10. Number of Participants with Physical Examination Abnormalities [Time Frame: Up to approximately 60 months]. Number of participants with physical examination abnormalities will be reported. • 11. […] Number of Participants with Anti-Amivantamab Antibodies [Time Frame: Up to approximately 42 months]. […] Change from Baseline in Non-Small Cell Lung Cancer-Symptom Assessment Questionnaire (NCSLC-SAQ) [Time Frame: Baseline Up to approximately 42 months]. The NSCLC-SAQ contains 7 items that assess cough, pain, dyspnea, fatigue, and poor appetite over a 7-day recall period. Each multi-item scale and individual item will be summarized using count and percent by visit. • 15. Change from Baseline in European Organization of Research and Treatment of Cancer Quality of Life Questionnaire Core 30 (EORTC-QLQ-C30) [Time Frame: Baseline Up to approximately 42 months]. EORTC-QLQ-C30 is a core 30-item questionnaire for evaluating the health-related quality of life (HRQOL) of participants participating in cancer clinical studies. • 16.

[3] = test system: EGFR-mutated locally advanced or metastatic NSCLC; test: MARIPOSA Phase 3, progression-free survival after first subsequent therapy (PFS2); format: in vivo, human
Text: The efficacy population included all patients who had undergone randomization. Tick marks indicate censoring of data. […]

[4] = test system: EGFR-mutated locally advanced or metastatic NSCLC; test: MARIPOSA Phase 3, time to symptomatic progression (TTSP); format: in vivo, human
[5] = test system: EGFR-mutated locally advanced or metastatic NSCLC; test: MARIPOSA Phase 3, overall survival; format: in vivo, human
[6] = test system: EGFR-mutated locally advanced or metastatic NSCLC; test: MARIPOSA Phase 3, objective response by BICR (RECIST v1.1); format: in vivo, human; details: best overall response
[7] = MARIPOSA Phase 3, adverse events; format: in vivo, human; details: in vivo
Text: • 1. […] Incidence and Severity of Adverse Events (AEs) [Time Frame: Up to approximately 60 months]. Incidence and severity of treatment emergent adverse events (TEAEs) will be reported. Any adverse event occurring at or after the initial administration of study treatment through the day of last dose plus 30 days, or until the start of subsequent anticancer therapy (if earlier), is considered to be treatment emergent. • 8. Number of Participants with Clinical Laboratory Abnormalities [Time Frame: Up to approximately 60 months]. Number of participants with clinical laboratory abnormalities (serum chemistry, hematology, blood coagulation, and urine samples) will be reported. • 9. Number of Participants with Vital Signs Abnormalities [Time Frame: Up to approximately 60 months]. Number of participants with vital signs abnormalities (temperature, heart rate, respiratory rate, oxygen saturation, blood pressure) will be reported. • 10. Number of Participants with Physical Examination Abnormalities [Time Frame: Up to approximately 60 months]. Number of participants with physical examination abnormalities will be reported. • 11. […] The NSCLC-SAQ contains 7 items that assess cough, pain, dyspnea, fatigue, and poor appetite over a 7-day recall period. Each multi-item scale and individual item will be summarized using count and percent by visit. • 15. […] EORTC-QLQ-C30 is a core 30-item questionnaire for evaluating the health-related quality of life (HRQOL) of participants participating in cancer clinical studies. • 16.

[8] = test system: EGFR-mutated locally advanced or metastatic NSCLC; test: MARIPOSA Phase 3, progression-free survival by BICR; format: in vivo, human
Text: The primary endpoint of the study is PFS (using RECIST v1.1 guidelines) as assessed by blinded independent central review (BICR).

[9] = test system: EGFR-mutated locally advanced or metastatic NSCLC; test: MARIPOSA Phase 3, duration of response by BICR; format: in vivo, human; details: confirmed responders

For C=CC(=O)Nc1cc(Nc2nccc(-n3cc(CN(C)C)c(-c4ccccc4)n3)n2)c(OC)cc1N1CCOCC1 [Lazertinib, N-(5-(4-(4-((dimethylamino)methyl)-3-phenyl-1H-pyrazol-1-yl)pyrimidin-2-ylamino)-4-methoxy-2-morpholinophenyl) acrylamide], the “PFS vs gefitinib” value (EGFR-mutated NSCLC) is given as “improved PFS compared to the first generation EGFR TKI gefitinib in all prespecified subgroups”, the “TTST 6-month event-free rate (95% CI)” value ([1]; Full Analysis Set) is given as 0.90 (0.85, 0.93) and the “TTST 12-month event-free rate (95% CI)” value ([1]; Full Analysis Set) is given as 0.71 (0.66, 0.78). The “TTST 18-month event-free rate (95% CI)” value ([1]; Full Analysis Set) was 0.60 (0.53, 0.66), the “TTST 24-month event-free rate (95% CI)” value ([1]; Full Analysis Set) was 0.50 (0.43, 0.58) and the “TTST time to event, 75th percentile (95% CI)” value ([1]; NE = not estimable) was “NE (NE , NE)”. The “Event (intracranial PFS)” value [2] was 37 (43.0%) (%), the “Intracranial PFS time to event, 75th percentile (95% CI)” value ([2]; NE = not estimable) was “NE (22.67, NE)” and the “Event (PFS2)” value ([3]; Full Analysis Set) was 58 (26.9%) (%). For the same compound, the “PFS2 time to event, 75th percentile (95% CI)” value ([3]; NE = not estimable) was “NE (28.94, NE)”, the “Death without Symptomatic PD” value ([4]; Full Analysis Set) was 24 (11.1%) (%) and the “Event (TTSP)” value ([4]; Full Analysis Set) was 70 (22.4%) (%). The “TTSP 6-month event-free rate (95% CI)” value ([4]; Full Analysis Set) was 0.90 (0.85, 0.93), the “TTSP 12-month event-free rate (95% CI)” value ([4]; Full Analysis Set) was 0.79 (0.72, 0.84) and the “TTSP 18-month event-free rate (95% CI)” value ([4]; Full Analysis Set) was 0.71 (0.64, 0.76). For the same compound, the “TTSP 24-month event-free rate (95% CI)” value ([4]; Full Analysis Set) was 0.65 (0.58, 0.72), the “TTSP 30-month event-free rate (95% CI)” value ([4]; Full Analysis Set) was 0.61 (0.52, 0.69) and the “TTSP time to event, 25th percentile (95% CI)” value ([4]; Full Analysis Set) was 13.80 (10.41, 18.56) months. The “TTSP Median (95% CI)” value ([4]; NE = not estimable) was “NE (NE, NE)”, the “TTSP time to event, 75th percentile (95% CI)” value ([4]; NE = not estimable) was “NE (NE, NE)” and the “Censored (OS)” value ([5]; Full Analysis Set) was 160 (74.1%) (%). For the same compound, the “Event (OS)” value ([5]; Full Analysis Set) was 56 (25.9%) (%), the “OS 12-month event-free rate (95% CI)” value ([5]; Full Analysis Set) was 0.86 (0.81, 0.90) and the “OS 18-month event-free rate (95% CI)” value ([5]; Full Analysis Set) was 0.78 (0.71, 0.83). For the same compound, the “OS 24-month event-free rate (95% CI)” value ([5]; Full Analysis Set) was 0.71 (0.61, 0.78), the “OS 30-month event-free rate (95% CI)” value ([5]; Full Analysis Set) was 0.68 (0.58, 0.75) and the “OS time to event, 75th percentile (95% CI)” value ([5]; NE = not estimable) was “NE (NE, NE)”. The “Median overall survival (95% CI)” value ([5]; interim analysis, NE = not estimable) was “NE (NE, NE)”, the “Complete Response (CR)” value [6] was 9 (4.2%) (%) and the “Not Evaluable (NE)” value [6] was 5 (2.3%) (%). For the same compound, the “Progressive Disease (PD)” value [6] was 9 (4.2%) (%), the “Safety profile” value [7] was “well defined and tolerable, and largely consistent with that seen with other 3rd generation EGFR TKI” and the “PFS 6-month event-free rate (95% CI)” value [8] was 0.85 (0.79, 0.89). For the same compound, the “PFS 18-month event-free rate (95% CI)” value [8] was 0.52 (0.44, 0.58), the “PFS 24-month event-free rate (95% CI)” value [8] was 0.35 (0.27, 0.42) and the “PFS 30-month event-free rate (95% CI)” value [8] was 0.30 (0.22, 0.39). For the same compound, the “Censored (PFS)” value ([8]; Full Analysis Set) was 95 (44.0%) (%), the “PFS time to event, 75th percentile (95% CI)” value ([8]; Full Analysis Set) was “NE (24.05, NE)” and the “Censored (DOR)” value [9] was 77 (48.1%) (%). The “Event (DOR)” value [9] was 83 (51.9%) (%) and the “DOR time to event, 75th percentile (95% CI)” value ([9]; NE = not estimable) was “NE (NE, NE)”.

For “Amivantamab: IgG1 anti-EGFR/c-Met bispecific antibody described in U.S. Pat. No. 9,593,164; SEQ ID NO: 1-20”, the “Safety profile” value [7] was “well defined and tolerable, largely consistent with its on-target activity against the EGFR and MET pathways”.
